Values quoted from earlier work as cited in US20140294790A1, “METHOD OF PREVENTING, CONTROLLING AND AMELIORATING URINARY TRACT INFECTIONS AND SUPPORTING DIGESTIVE HEALTH BY USING A SYNERGISTIC CRANBERRY DERIVATIVE, A D-MANNOSE COMPOSITION AND A PROPRIETARY PROBIOTIC BLEND” (U.S. NUTRACEUTICALS, LLC d/b/a Valensa International, priority 2008, published 2014).

Measured: antibacterial activity

acidophilin
demonstrated activity: Clostridium perfringens | Staphylococcus aureus | Bacillus subtilis | Salmonella typhimurium | Escherichia coli | Salmonella enteritidis
